{"source": "ChEMBL document CHEMBL5214910", "about": "“Rational Design of Dipicolylamine-Containing Carbazole Amphiphiles Combined with Zn2+ as Potent Broad-Spectrum Antibacterial Agents with a Membrane-Disruptive Mechanism” (J Med Chem, 2021)", "key": {"Escherichia coli": {"tested_on": "Escherichia coli", "test": "Antibacterial activity against Escherichia coli ATCC 25922 assessed as inhibition of bacterial growth by measuring salt resistance incubated for 24 hrs in the presence of 12.5 ug/ml Zn2+ and 175.5 ug/ml K+ by Muller hinton broth based dilution assay", "format": "functional"}, "[1]": {"test": "Ratio of MIC for antibacterial activity against Acinetobacter baumannii R2889 to MIC for antibacterial activity against Acinetobacter baumannii R2889 in the presence of Zn2+", "format": "functional"}}}
{"smiles": "CC(C)=CCn1c2ccccc2c2c(OCC(O)CN(Cc3ccccn3)Cc3ccccn3)cccc21", "note": "(configuration not stated)", "values": [{"measurement": "MIC", "setting": "Escherichia coli", "result": 1.56, "unit": "mg/L"}, {"measurement": "Ratio", "setting": "[1]", "result": 2}]}
